The source made the active and inactive calls.
Key:
Mus musculus [1] = assay: Analgesic activity in ICR mouse assessed as pain threshold at 0.1 umol/kg administered through oral gavage after 90 mins by tail flick method; format: functional
[2] = Antioxidant activity in H2O2/Fe(II)-stimulated rat PC12 cells assessed as OH radical scavenging activity measured by cell survival preincubated with compound for 1 hr measured after 14 hrs by MTT assay; format: functional, cell-based; settings: pc-12
Mus musculus [3] = assay: Analgesic activity in ICR mouse assessed as pain threshold at 0.1 umol/kg administered through oral gavage after 60 mins by tail flick method; format: functional
Mus musculus [4] = assay: Analgesic activity in ICR mouse assessed as pain threshold at 0.1 umol/kg administered through oral gavage after 150 mins by tail flick method; format: functional
Mus musculus [5] = assay: Analgesic activity in ICR mouse assessed as pain threshold at 0.1 umol/kg administered through oral gavage after 120 mins by tail flick method; format: functional
Mus musculus [6] = assay: Antiinflammatory activity in ICR mouse assessed as inhibition of xylene-induced ear edema at 0.1 umol/kg, po administered 30 mins prior to xylene challenge measured after 2hrs; format: functional; settings: for inhibition in vivo at 0.1 µmol/kg: Mus musculus, ICR, Ear, po
[7] = Antioxidant activity in rat PC12 cells assessed as H2O2 radical scavenging activity measured as cell survival preincubated with compound for 1 hr measured after 14 hrs by MTT assay; format: functional, cell-based; settings: pc-12
[8] = Antioxidant activity in sodium nitroprusside-stimulated rat PC12 cells assessed as NO radical scavenging activity measured as cell survival preincubated with compound for 1 hr followed by addition of sodium nitroprusside for 2 measured after 14 hrs by MTT assay; format: functional, cell-based; settings: pc-12
Mus musculus [9] = assay: Analgesic activity in ICR mouse assessed as pain threshold at 0.1 umol/kg administered through oral gavage after 30 mins by tail flick method; format: functional
Mus musculus [10] = assay: Analgesic activity in ICR mouse assessed as pain threshold at 0.1 umol/kg administered through oral gavage after 180 mins by tail flick method; format: functional
Mus musculus [11] = assay: Analgesic activity in ICR mouse assessed as pain threshold at 0.05 umol/kg administered through oral gavage after 90 mins by tail flick method; format: functional
Mus musculus [12] = assay: Analgesic activity in ICR mouse assessed as pain threshold at 0.15 umol/kg administered through oral gavage after 120 mins by tail flick method; format: functional
HUVEC [13] = assay: Inhibition of simulated ischemia/reperfusion-induced ROS production in human HUVEC cells at 30 ug/ml after 2 hrs by Hoechst 33342 dye based fluorescence assay; format: functional, cell-based
HUVEC [14] = assay: Inhibition of simulated ischemia/reperfusion-induced cytochrome C release in human HUVEC cells at 30 ug/ml after 2 hrs by fluorescence assay (reference value: 75.3 +/- 5.2 %); format: functional; design: scale not given: the % may be the effect or the level left
Mus musculus [15] = assay: Analgesic activity in ICR mouse assessed as pain threshold at 0.15 umol/kg administered through oral gavage after 150 mins by tail flick method; format: functional
Mus musculus [16] = assay: Analgesic activity in ICR mouse assessed as pain threshold at 0.055 umol/kg administered through oral gavage after 150 mins by tail flick method; format: functional
Mus musculus [17] = assay: Analgesic activity in ICR mouse assessed as pain threshold at 0.05 umol/kg administered through oral gavage after 60 mins by tail flick method; format: functional
Mus musculus [18] = assay: Analgesic activity in ICR mouse assessed as pain threshold at 0.15 umol/kg administered through oral gavage after 30 mins by tail flick method; format: functional
Mus musculus [19] = assay: Analgesic activity in ICR mouse assessed as pain threshold at 0.05 umol/kg administered through oral gavage after 30 mins by tail flick method; format: functional
HUVEC [20] = assay: Inhibition of simulated ischemia/reperfusion-induced human HUVEC cells death assessed as increase in tubular mitochondria levels at 30 ug/ml after 2 hrs by Hoechst 33342 dye based fluorescence assay (reference value: 11.3 +/- 2.1 %); format: functional; design: scale not given: the % may be the effect or the level left
Mus musculus [21] = assay: Analgesic activity in ICR mouse assessed as pain threshold at 0.055 umol/kg administered through oral gavage after 180 mins by tail flick method; format: functional
Mus musculus [22] = assay: Analgesic activity in ICR mouse assessed as pain threshold at 0.05 umol/kg administered through oral gavage after 120 mins by tail flick method; format: functional
Mus musculus [23] = assay: Analgesic activity in ICR mouse assessed as pain threshold at 0.15 umol/kg administered through oral gavage after 180 mins by tail flick method; format: functional
HUVEC [24] = assay: Inhibition of simulated ischemia/reperfusion-induced human HUVEC cells death assessed as decrease in fragmented mitochondria at 30 ug/ml after 2 hrs by Hoechst 33342 dye based fluorescence assay; format: functional, cell-based
Mus musculus [25] = assay: Antiinflammatory activity in ICR mouse assessed as inhibition of xylene-induced ear edema at 0.15 umol/kg, po administered 30 mins prior to xylene challenge measured after 2hrs; format: functional
Mus musculus [26] = assay: Antiinflammatory activity in ICR mouse assessed as inhibition of xylene-induced ear edema at 0.05 umol/kg, po administered 30 mins prior to xylene challenge measured after 2hrs; format: functional
Mus musculus [27] = assay: Analgesic activity in ICR mouse assessed as pain threshold at 0.15 umol/kg administered through oral gavage after 60 mins by tail flick method; format: functional
Mus musculus [28] = assay: Analgesic activity in ICR mouse assessed as pain threshold at 0.15 umol/kg administered through oral gavage after 90 mins by tail flick method; format: functional
Mus musculus [29] = assay: Analgesic activity in ICR mouse assessed as pain threshold at 1 umol/kg administered through oral gavage after 30 mins by tail flick method; format: functional
Mus musculus [30] = assay: Analgesic activity in ICR mouse assessed as pain threshold at 1 umol/kg administered through oral gavage after 150 mins by tail flick method; format: functional
Mus musculus [31] = assay: Analgesic activity in ICR mouse assessed as pain threshold at 1 umol/kg administered through oral gavage after 180 mins by tail flick method; format: functional
Mus musculus [32] = assay: Analgesic activity in ICR mouse assessed as pain threshold at 1 umol/kg administered through oral gavage after 120 mins by tail flick method; format: functional
Mus musculus [33] = assay: Analgesic activity in ICR mouse assessed as pain threshold at 1 umol/kg administered through oral gavage after 90 mins by tail flick method; format: functional
Mus musculus [34] = assay: Analgesic activity in ICR mouse assessed as pain threshold at 1 umol/kg administered through oral gavage after 60 mins by tail flick method; format: functional

Row | SMILES | Activity (Mus musculus [1]) | EC50 [2] | Activity (Mus musculus [3]) | Activity (Mus musculus [4]) | Activity (Mus musculus [5]) | inhibition (INH) (Mus musculus [6]) | EC50 [7] | EC50 [8] | Activity (Mus musculus [9]) | Activity (Mus musculus [10]) | Activity (Mus musculus [29]) | Activity (Mus musculus [30]) | Activity (Mus musculus [31]) | inhibition in vivo at 0.1 µmol/kg (Mus musculus [6]) | Activity (Mus musculus [32]) | Activity (Mus musculus [33]) | Activity (Mus musculus [34]) | other results
1 | COc1cc(O)ccc1C[C@H](NC(=O)COc1ccc(C2=[N+]([O-])C(C)(C)C(C)(C)N2[O])cc1)C(=O)N[C@@H](CCCNC(=N)N)C(=O)O | 22.47% | 22.7 µM | 16.33% | 24.12% | 27.14% | 29.27% | 31.3 µM | 8.1 µM | 11.37% | 11.24% | – | – | – | – | – | – | – | –
2 | CC1(C)N([O])C(c2ccc(OCC(=O)NCCNC(=O)[C@H](Cc3ccc(O)cc3)NC(=O)[C@@H](N)CCCNC(=N)N)cc2)=[N+]([O-])C1(C)C | 35.74% | 33.9 µM | 25.75% | 37.11% | 48.17% | 50.68% | 32.5 µM | 19.5 µM | 15.28% | 23.15% | – | – | – | – | – | – | – | Activity (Mus musculus [11]): 13.57%; Activity (Mus musculus [12]): 50.61%; Activity (HUVEC [13]): Active; Activity (HUVEC [14]): 47.8%; Activity (Mus musculus [15]): 39.13%; Activity (Mus musculus [16]): 11.91%; Activity (Mus musculus [17]): 10.35%; Activity (Mus musculus [18]): 17.89%; Activity (Mus musculus [19]): 7.48%; Activity (HUVEC [20]): 41.5%; Activity (Mus musculus [21]): 9.14%; Activity (Mus musculus [22]): 15.78%; Activity (Mus musculus [23]): 27.67%; inhibition (HUVEC [24]): Active; inhibition (INH) (Mus musculus [25]): 58.15%; inhibition (INH) (Mus musculus [26]): 21.21%; Activity (Mus musculus [27]): 28.65%; Activity (Mus musculus [28]): 32.33%
3 | Cc1cc(C[C@H](NC(=O)COc2ccc(C3=[N+]([O-])C(C)(C)C(C)(C)N3[O])cc2)C(=O)N[C@@H](CCCNC(=N)N)C(=O)O)ccc1O | 22.1% | 22.7 µM | 18.97% | 13.25% | 31.21% | 29.47% | 31.3 µM | 8.1 µM | 10.24% | 12.38% | – | – | – | – | – | – | – | –
4 | CC1(C)N([O])C(c2ccc(OCC(=O)N[C@@H](Cc3ccc(O)cc3)C(=O)N[C@@H](CCCNC(=N)N)C(=O)O)cc2)=[N+]([O-])C1(C)C | 31.45% | 22.7 µM | 18.66% | 34.14% | 40.01% | 40.86% | 31.3 µM | 8.1 µM | 12.53% | 14.45% | – | – | – | – | – | – | – | –
5 | CC1(C)N([O])C(c2ccc(OCC(=O)O)cc2)=[N+]([O-])C1(C)C | – | – | – | – | – | – | – | – | – | – | 9.1% | 21.11% | 13.05% | 29.7% | 23.18% | 20.97% | 12.31% | –
6 | NC(N)=NCCC[C@H](NC(=O)[C@@H](N)Cc1ccc(O)cc1)C(=O)O [KYOTORPHIN] | – | – | – | – | – | – | – | – | – | – | 16.08% | 12.11% | 10.55% | 25.9% | 12.32% | 25.35% | 22.78% | –

From ChEMBL document CHEMBL3784981, “Anti-inflammatory, analgesic and antioxidant activities of novel kyotorphin-nitroxide hybrid molecules” (Bioorg Med Chem Lett, 2016)
